# Source: US20260317367A1, “SALTS INCLUDING CRYSTALLINE SALTS OF 25-HYDROXY-CHOLEST-5-EN-3-SULFATE AND METHODS FOR PREPARING SAME” (Durect Corporation, priority 2022, published 2026)
# Where a name gives a salt, the structure may show the parent alone.
# What was measured:
# [1] = Humidity / water activity stability of crystalline 25HC3S sodium forms; format: physicochemical
# [2] = Dynamic vapor sorption (DVS), hygroscopicity; format: physicochemical; details: DVS
# Text: Dynamic vapor sorption (DVS) measures the uptake of a vapor (typically water) by a sample when exposed to a changing relative humidity. The loss of water can also be measured as relative humidity is decreased. Hygroscopic materials tend to absorb water more readily than non-hygroscopic. In some cases, hydrates absorb water to create higher-order hydrates (e.g., a monohydrate converting to a dihydrate when exposed to increasingly humid conditions). In some salts of the disclosure, moisture is retained upon exposure in a DVS experiment and little or no weight loss is observed upon heating from room temperature. In such experiments, the hygroscopic nature of the salt under study may indicate the formation of a hydrate from an anhydrate. […] Exemplary methods for collecting DVS data are set forth in Example 26.
# Dynamic vapor sorption data was collected on a Surface Measurement System DVS Intrinsic instrument. The samples were not dried prior to analysis. Sorption and desorption data were collected over a range from 5% to 95% RH in 10% RH increments under a nitrogen purge. The equilibrium criteria used for the analyses were 0.001 dm/dt weight change in 5 minutes with a minimum step time of 30 minutes and maximum equilibration time of 180 minutes with a 3 minute data logging interval. Data were not corrected for the initial moisture content of the sample.
# [3] = tested on: cholesterol secretion and degradation; details: shown previously; cited from earlier work
# [4] = tested on: lipid biosynthesis; details: shown previously; cited from earlier work
structure (smiles),measurement,setting,value
"CC(CCCC(C)(C)O)C1CCC2C3CC=C4CC(OS(=O)(=O)O)CCC4(C)C3CCC12C (centres unmarked) [Form I, reference compound]",Water activity above which a liquid crystal may form,[1]; high water activities,above 0.73
same,Hygroscopicity (in words),[2],hygroscopic
"C[C@H](CCCC(C)(C)O)[C@H]1CCC2C3CC=C4C[C@@H](OS(=O)(=O)O)CC[C@]4(C)C3CC[C@@]21C (stereo partly drawn) [Salt 25HC3S, [(3S,10R,13R,17R)-17-[(1R)-5-hydroxy-1,5-dimethyl-hexyl]-10,13-dimethyl-2,3,4,7,8,9,11,12,14,15,16,17-dodecahydro-1H-cyclopenta[a]phenanthren-3-yl]sulfate]",Effect on cholesterol secretion and degradation,[3],increases
same,Effect on lipid biosynthesis,[4],decreases
"C[C@H](CCCC(C)(C)O)[C@H]1CC[C@H]2[C@@H]3CC=C4C[C@@H](OS(=O)(=O)[O-])CC[C@]4(C)[C@H]3CC[C@]12C.[Na+] [crystalline 25HC3S sodium, Sodium [(3S,10R,13R,17R)-17-[(1R)-5-hydroxy-1,5-dimethyl-hexyl]-10,13-dimethyl-2,3,4,7,8,9,11,12,14,15,16,17-dodecahydro-1H-cyclopenta[a]phenanthren-3-yl]sulfate]",Behaviour under humid conditions (in words),[1]; humid conditions,stabilizes as a hydrate
